Data taken from patent publication US20240374573A1, “IMIDAZOLE CONTAINING COMPOUNDS, DERIVATIVES THEREFORE, AND USES THEREOF” (AglaeaPharma Inc., priority 2023, published 2024).

Each molecule was assayed against T1, α2AAR (Homo sapiens, UniProt P08913) (assay: α2AAR binding assay ([3H]-RX 821002 radioligand)). Conditions: [3H]-RX 821002 0.5 nM, HEK293 membranes; read-out: α2A affinity (Ki).
T1 construct: host or cells: HEK293 (membranes)
T1 sequence (P08913 1-465): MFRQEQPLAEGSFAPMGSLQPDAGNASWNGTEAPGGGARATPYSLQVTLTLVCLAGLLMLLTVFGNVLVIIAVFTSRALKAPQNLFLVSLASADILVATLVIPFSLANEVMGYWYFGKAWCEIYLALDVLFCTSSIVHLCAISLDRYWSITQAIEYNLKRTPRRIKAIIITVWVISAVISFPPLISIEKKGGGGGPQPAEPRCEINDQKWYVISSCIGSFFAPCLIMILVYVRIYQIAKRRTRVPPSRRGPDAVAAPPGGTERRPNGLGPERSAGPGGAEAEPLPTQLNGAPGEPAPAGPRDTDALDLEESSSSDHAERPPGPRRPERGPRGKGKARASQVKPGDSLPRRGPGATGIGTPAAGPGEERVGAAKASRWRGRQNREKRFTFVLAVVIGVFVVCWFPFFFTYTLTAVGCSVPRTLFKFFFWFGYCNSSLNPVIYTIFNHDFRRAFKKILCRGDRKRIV
Protocol: The α2AR Binding Assay was conducted using a stable HEK293 cell line, specifically constructed by WuXi AppTec for targeting α2AAR. […] Both the assay and wash buffers consist of 50 mM Tris-HCl at a pH of 7.4 (Tris base, Sigma, T1503-1 KG).
The procedure initiated with the preparation of test compounds and a reference compound, yohimbine (Sigma, Y3125), through an 8-point 4-fold serial dilution, transferring 1 μL of each to the assay plate. […] After scaling, the plates were agitated at room temperature for one hour. Subsequently, the Unifilter-96 GF/C filter plates were pre-soaked with 0.3% PEI (Sigma, P3143) for at least half an hour. The reaction mixtures were then filtered and washed four times with cold wash buffer using a Perkin Elmer Cell harvester. Post-filtration, the plates were dried at 50° C. for one hour. […] The top of the plates was then sealed with TopSeal-A sealing film. The trapped 3H was quantified using a Perkin Elmer MicroBeta2 Reader. […] Finally, the data were analyzed with Prism 5.0 software, employing the “log (inhibitor) vs. response-Variable slope” model for data fitting. This comprehensive process ensured precise assessment of the binding affinity of compounds to the α2AAR.

| Compound | Ki [nM] |
| --- | --- |
| Cc1cccc(C(c2cccc(NC(=O)CCC#N)c2)c2c[nH]cn2)c1C (single isomer, unassigned) [43-A] | > 1000 |
| Cc1cccc(C(c2c[nH]cn2)c2cccc(C(N)=O)c2F)c1C (single isomer, unassigned) [45-A] | > 1000 |
| Cc1cccc(C(c2cccc(OCCNS(C)(=O)=O)c2)c2c[nH]cn2)c1C (single isomer, unassigned) [46-A] | > 1000 |
| Cc1cccc(C(c2c[nH]cn2)c2cccc(C(=O)NCC3CCOCC3)c2F)c1C (single isomer, unassigned) [124-A] | 250 to 1000 |
| Cc1cccc(C(Cc2ccc(C(N)=O)c(F)c2)c2c[nH]cn2)c1C (single isomer, unassigned) [156-A] | > 1000 |
| Cc1cccc(C(Cc2ccc(C(=O)O)cc2)c2c[nH]cn2)c1C (single isomer, unassigned) [175-A] | > 1000 |
| Cc1cccc(C(OCCOCCNS(C)(=O)=O)c2c[nH]cn2)c1C (stereo not shown) [compound 40] | > 1000 |
| Cc1cccc(C(c2cccc(OCCC#N)c2)c2c[nH]cn2)c1C (stereo not shown) [compound 48] | > 1000 |
| CONC(=O)c1cccc(C(c2ccccc2)c2c[nH]cn2)c1 (stereo not shown) [compound 49] | > 1000 |
| CONC(=O)c1cc(C(c2c[nH]cn2)c2cccc(C)c2C)ccc1F (stereo not shown) [compound 53] | 250 to 1000 |
| Cc1cccc(C(c2ccnc(NS(C)(=O)=O)c2)c2c[nH]cn2)c1C (stereo not shown) [compound 57] | 250 to 1000 |
| Cc1cccc(C(c2c[nH]cn2)C2CCCC(C(=O)O)C2)c1C (stereo not shown) [compound 60] | 250 to 1000 |
| Cc1cccc(C(c2cccc(C#N)c2)c2c[nH]cn2)c1C (stereo not shown) [compound 68] | 50 to 250 |
| Cc1cccc(C(c2cccc(NS(=O)(=O)C(F)(F)F)c2)c2c[nH]cn2)c1C (stereo not shown) [compound 77] | 250 to 1000 |
| CS(=O)(=O)Nc1cccc(C(c2c[nH]cn2)c2c(F)cccc2Cl)c1 (stereo not shown) [compound 78] | 250 to 1000 |
| Cc1cccc(C(c2cccc(NC(=O)CCN3CCN(C)CC3)c2)c2c[nH]cn2)c1C (stereo not shown) [compound 82] | > 1000 |
| Cc1cccc(C(c2c[nH]cn2)C2CCCC(C(N)=O)C2)c1C (stereo not shown) [compound 92] | > 1000 |
| Cc1cccc(C(CCOCCOCCNS(C)(=O)=O)c2c[nH]cn2)c1C (stereo not shown) [compound 93] | 250 to 1000 |
| Cc1cccc(C(c2cccc(CN3CCCCC3)c2)c2c[nH]cn2)c1C (stereo not shown) [compound 114] | > 1000 |
| Cc1c(CO)cccc1C(c1cccc(NS(C)(=O)=O)c1)c1c[nH]cn1 (stereo not shown) [compound 115] | 250 to 1000 |
| Cc1cccc(C(CCc2ccccc2NS(C)(=O)=O)c2c[nH]cn2)c1C (stereo not shown) [compound 183] | 250 to 1000 |
| Cc1cccc(C(CC23CC4CC(C2)CC(C(N)=O)(C4)C3)c2c[nH]cn2)c1C (stereo not shown) [compound 188] | > 1000 |
| Cc1cccc(C(Cc2ccc(P(=O)(O)O)cc2)c2c[nH]cn2)c1C (stereo not shown) [compound 199] | > 1000 |
| Cc1cccc(C(CCCCCC(N)=O)c2c[nH]cn2)c1C (stereo not shown) [compound 240] | 250 to 1000 |
| Cc1csc(C)c1C(c1cccc(NS(C)(=O)=O)c1)c1c[nH]cn1 (stereo not shown) [compound 402] | 250 to 1000 |
| CS(=O)(=O)Nc1cccc(CC(C2=NCCN2)c2c(Cl)cccc2Cl)c1 (stereo not shown) [compound 501] | 250 to 1000 |
| CONC(=O)c1cccc(C(NC2=NCCS2)c2ccccc2OC)c1 (stereo not shown) [compound 508] | 250 to 1000 |

Continued, values first:

| Ki [nM] | Compound |
| --- | --- |
| 250 to 1000 | Cc1cccc(C(c2cccc(C(=O)NCC3CCOCC3)c2)c2c[nH]cn2)c1C (single isomer, unassigned) [98-A] |
| 250 to 1000 | Cc1cccc(C(Cc2cccc(NS(=O)(=O)CC3CCOCC3)c2)c2c[nH]cn2)c1C (single isomer, unassigned) [112-A] |
| 50 to 250 | Cc1cccc(C(c2c[nH]cn2)c2cccc(NC(=O)CC#N)c2F)c1C (stereo not shown) [compound 41] |
| 50 to 250 | Cc1cccc(C(c2cccc(NC(=O)CCC(N)=O)c2)c2c[nH]cn2)c1C (stereo not shown) [compound 42] |
| 50 to 250 | Cc1cccc(C(c2c[nH]cn2)c2ccnc(C(N)=O)c2F)c1C (stereo not shown) [compound 58] |
| 50 to 250 | COC(=O)Nc1cccc(C(c2c[nH]cn2)c2cccc(C)c2C)c1 (stereo not shown) [compound 62] |
| 50 to 250 | CC(=O)NCc1cccc(C(c2c[nH]cn2)c2cccc(C)c2C)c1 (stereo not shown) [compound 65] |
| 50 to 250 | Cc1cccc(C(c2cccc(CNS(C)(=O)=O)c2)c2c[nH]cn2)c1C (stereo not shown) [compound 69] |
| 10 to 50 | Cc1cccc(C(c2cccc(N(C)S(C)(=O)=O)c2)c2c[nH]cn2)c1C (stereo not shown) [compound 71] |
| 50 to 250 | Cc1c(F)cccc1C(c1cccc(NS(C)(=O)=O)c1)c1c[nH]cn1 (stereo not shown) [compound 75] |
| 50 to 250 | Cc1cccc(C(c2cccc(NCCNS(C)(=O)=O)c2)c2c[nH]cn2)c1C (stereo not shown) [compound 83] |
| 50 to 250 | Cc1cccc(C(c2cccc(NC(=O)c3cn[nH]c3)c2)c2c[nH]cn2)c1C (stereo not shown) [compound 87] |
| 50 to 250 | Cc1cccc(C(c2cccc(C(=O)NOCCN3CCOCC3)c2)c2c[nH]cn2)c1C (stereo not shown) [compound 91] |
| 50 to 250 | Cc1cccc(C(c2c[nH]cn2)N2CCc3ccc(NS(C)(=O)=O)cc32)c1C (stereo not shown) [compound 106] |
| 50 to 250 | Cc1cccc(C(c2cccc(NC(=O)CN3CCNCC3)c2)c2c[nH]cn2)c1C (stereo not shown) [compound 107] |
| 50 to 250 | Cc1cccc(C(c2cccc(NC(=O)CN(C)C)c2)c2c[nH]cn2)c1C (stereo not shown) [compound 110] |
| 50 to 250 | Cc1c(F)cccc1C(c1cccc(NC(=O)CC2CCOCC2)c1)c1c[nH]cn1 (stereo not shown) [compound 113] |
| 10 to 50 | Cc1cccc(C(c2cccc(COCCNS(C)(=O)=O)c2)c2c[nH]cn2)c1C (stereo not shown) [compound 116] |
| 10 to 50 | Cc1cccc(C(c2cccc(CCN3CCC(O)CC3)c2)c2c[nH]cn2)c1C (stereo not shown) [compound 125] |
| 10 to 50 | CNS(=O)(=O)Nc1cccc(C(c2c[nH]cn2)c2cccc(C)c2C)c1 (stereo not shown) [compound 127] |
| 50 to 250 | CNC(=O)Nc1cccc(C(c2c[nH]cn2)c2cccc(C)c2C)c1 (stereo not shown) [compound 128] |

| Ki [nM] | Compound |
| --- | --- |
| 50 to 250 | C=CC(=O)Nc1cccc(C(c2c[nH]cn2)c2cccc(C)c2C)c1 (stereo not shown) [compound 129] |
| 10 to 50 | Cc1csc(CCS(=O)(=O)Nc2cccc(C(c3c[nH]cn3)c3cccc(C)c3C)c2)n1 (stereo not shown) [compound 131] |
| 50 to 250 | COc1ccccc1C(c1cccc(NC(=O)CC2CCOCC2)c1)c1c[nH]cn1 (stereo not shown) [compound 132] |
| 50 to 250 | COc1ccccc1C(c1cccc(NS(C)(=O)=O)c1)c1c[nH]cn1 (stereo not shown) [compound 135] |
| 50 to 250 | CCc1ccccc1C(c1cccc(NS(C)(=O)=O)c1)c1c[nH]cn1 (stereo not shown) [compound 140] |
| < 10 | Cc1cccc(C(Cc2cccc(NS(=O)(=O)CC3CCOCC3)c2)c2c[nH]cn2)c1C (stereo not shown) [compound 142] |
| 50 to 250 | Cc1cccc(C(c2cccc(NC(=O)CC[N+](C)(C)C)c2)c2c[nH]cn2)c1C (stereo not shown) [compound 144] |
| 50 to 250 | CONC(=O)c1cc(C(c2c[nH]cn2)c2cccc(C)c2C)cs1 (stereo not shown) [compound 182] |
| 10 to 50 | Cc1cccc(C(c2cccc(NS(=O)(=O)CCc3cncnc3)c2)c2c[nH]cn2)c1C (stereo not shown) [compound 189] |
| 50 to 250 | Cc1cccc(C(CCCCNS(C)(=O)=O)c2c[nH]cn2)c1C (stereo not shown) [compound 191] |
| 50 to 250 | Cc1cccc(C(Cc2ccc(C(N)=O)nc2)c2c[nH]cn2)c1C (stereo not shown) [compound 238] |
| 50 to 250 | Cc1cccc(C(CCCCNS(=O)(=O)C2CCOCC2)c2c[nH]cn2)c1C (stereo not shown) [compound 250] |
| 50 to 250 | NC(=O)c1cccc(CC(Oc2c(Cl)cccc2Cl)C2=NCCN2)c1 (stereo not shown) [compound 502] |
| 50 to 250 | Cc1cccc(C(NC2=NCCS2)c2cccc(NS(C)(=O)=O)c2)c1C (stereo not shown) [compound 504] |
| 10 to 50 | Cc1cccc(C(NC2=NCCS2)c2cccc(NC(=O)CC3CCOCC3)c2)c1C (stereo not shown) [compound 507] |
| 50 to 250 | Cc1cccc(C(Cc2cccc(NS(C)(=O)=O)c2)C2=NCCN2)c1C (stereo not shown) [compound 510] |
| < 10 | CONC(=O)c1cccc(CC(NC2=NCCS2)c2cccc(C)c2C)c1 (stereo not shown) [compound 511] |
| < 10 | CONC(=O)c1cccc(CC(NC2=NCCS2)c2cccc(Cl)c2Cl)c1 (stereo not shown) [compound 512] |
| < 10 | CONC(=O)c1cc(CC(NC2=NCCS2)c2ccccc2OC)ccn1 (stereo not shown) [compound 513] |
| 50 to 250 | COc1ccccc1C(NC1=NCCS1)c1cccc(NC(=O)CC2CCOCC2)c1 (stereo not shown) [compound 514] |

Same assay, conditions: α2A affinity (Ki, nM)

| Compound | Ki [nM] |
| --- | --- |
| Cc1cccc(C(c2cnc[nH]2)C2CCc3ccc(O)cc32)c1C (single isomer, unassigned) [100-A] | < 10 |
| Cc1cccc(C(c2cnc[nH]2)C2CCc3ccc(O)cc32)c1C (single isomer, unassigned) [100-B] | 50 to 250 |
| Cc1cccc(C(COCCNS(C)(=O)=O)c2c[nH]cn2)c1C (stereo not shown) [compound 66] | 250 to 1000 |
| Cc1cccc(C(CCCNS(C)(=O)=O)c2c[nH]cn2)c1C (stereo not shown) [compound 184] | 250 to 1000 |
| Cc1cccc(C(CCCCCNS(C)(=O)=O)c2c[nH]cn2)c1C (stereo not shown) [compound 249] | 50 to 250 |
